Assay results from patent US8486962B2, “Antifungal agents” (F2G Ltd., priority 2005, dated 2013).
Values after ≈ are worked out from the molar mass of the structure shown. Read-outs that look alike come from different tables or passages of the source.

Tests used:
[1] = test system: Aspergillus flavus; experiment: MIC, YAG medium, Aspergillus flavus; format: cell-based; conditions: YAG medium; for MIC: Aspergillus flavus
How it was run: (§1)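 Doubling dilutions (50-0.05 mg/L) were tested against Candida in RPMI with 2% glucose and 0.135M MOPS, pH7.0, at 1-2×10^3 cfu/ml for 24-48 hrs, 35° C; MIC is >80% inhibition at OD485. Aspergillus in YAG medium at 1-2×10^4 cfu/ml for 24 hrs was scored at >70% inhibition; low MICs were retested over 0.5-0.0005 mg/L.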

[2] = test system: Aspergillus fumigatus AF293; experiment: MIC, YAG medium, Aspergillus fumigatus AF293; format: cell-based; conditions: YAG medium; for MIC: Aspergillus fumigatus, AF293, read-out: MIC A Fum. 293
How it was run: as §1

[3] = test system: Aspergillus niger; experiment: MIC, YAG medium, Aspergillus niger; format: cell-based; conditions: YAG medium; for MIC: Aspergillus niger
How it was run: as §1

[4] = test system: Aspergillus terreus; experiment: MIC, YAG medium, Aspergillus terreus; format: cell-based; conditions: YAG medium; for MIC: Aspergillus terreus
How it was run: as §1

[5] = test system: Aspergillus fumigatus AF210; experiment: MIC, YAG medium, Aspergillus fumigatus AF210; format: cell-based; conditions: YAG medium; for MIC: Aspergillus fumigatus, AF210, read-out: MIC A Fum. 210
How it was run: as §1

[6] = test system: A Terreus 49; experiment: MIC, YAG medium, A Terreus 49; format: cell-based, Aspergillus terreus; conditions: YAG medium; for MIC: Aspergillus terreus, read-out: MIC A Terreus 49
How it was run: as §1

CCCN(CCC)c1ccc(NC(=O)C(=O)c2c(-c3ccccc3)cc3ccccn23)cn1 [Example 289, N-(6-Dipropylamino-pyridin-3-yl)-2-oxo-2-(2-phenyl-indolizin-3-yl)-acetamide]
MIC ([1]; read-out: MIC A Flavus 01): 0.004 µg/mL (≈ 0.00908 µM) | MIC [2]: 0.05 µg/mL (≈ 0.113 µM) | MIC ([3]; read-out: MIC A Niger 1): 0.004 µg/mL (≈ 0.00908 µM) | MIC ([4]; read-out: MIC A Terreus 4): 0.008 µg/mL (≈ 0.0182 µM) | MIC [5]: 0.05 µg/mL (≈ 0.113 µM) | MIC [6]: 0.008 µg/mL (≈ 0.0182 µM)

CCCOC(=O)c1ccc(NC(=O)C(=O)c2c(-c3ccccc3)cc3ccccn23)cc1 [Example 143, 4-[2-Oxo-2-(2-phenyl-indolizin-3-yl)-acetylamino]-benzoic acid propyl ester]
MIC ([1]; read-out: MIC A Flavus 01): 0.031 µg/mL (≈ 0.0727 µM) | MIC [2]: 0.061 µg/mL (≈ 0.143 µM) | MIC ([3]; read-out: MIC A Niger 1): 0.015 µg/mL (≈ 0.0352 µM) | MIC ([4]; read-out: MIC A Terreus 4): 0.031 µg/mL (≈ 0.0727 µM) | MIC [5]: 0.06 µg/mL (≈ 0.141 µM) | MIC [6]: 0.008 µg/mL (≈ 0.0188 µM)

CN(C)c1ccc(NC(=O)C(=O)c2c(-c3ccccc3)cc3ccccn23)cc1 [Example 203, N-(4-Dimethylamino-phenyl)-2-oxo-2-(2-phenyl-indolizin-3-yl)-acetamide]
MIC ([1]; read-out: MIC A Flavus 01): 0.008 µg/mL (≈ 0.0209 µM) | MIC [2]: 0.06 µg/mL (≈ 0.156 µM) | MIC ([3]; read-out: MIC A Niger 1): 0.031 µg/mL (≈ 0.0808 µM) | MIC ([4]; read-out: MIC A Terreus 4): 0.015 µg/mL (≈ 0.0391 µM) | MIC [5]: 0.062 µg/mL (≈ 0.162 µM) | MIC [6]: 0.008 µg/mL (≈ 0.0209 µM)

CC(=O)c1ccc(NC(=O)C(=O)c2c(-c3ccccc3)cc3ccccn23)cc1 [Example 205, N-(4-Acetyl-phenyl)-2-oxo-2-(2-phenyl-indolizin-3-yl)-acetamide]
MIC ([1]; read-out: MIC A Flavus 01): 0.062 µg/mL (≈ 0.162 µM) | MIC [2]: 0.5 µg/mL (≈ 1.31 µM) | MIC ([3]; read-out: MIC A Niger 1): 0.062 µg/mL (≈ 0.162 µM) | MIC ([4]; read-out: MIC A Terreus 4): 0.031 µg/mL (≈ 0.0811 µM) | MIC [5]: 0.5 µg/mL (≈ 1.31 µM) | MIC [6]: 0.062 µg/mL (≈ 0.162 µM)

Cc1ccc(NC(=O)C(=O)c2c(-c3ccc(F)cc3)cc3ccccn23)cc1 [Example 156, 2-[2-(4-Fluoro-phenyl)-indolizin-3-yl]-2-oxo-N-p-tolyl-acetamide]
MIC ([1]; read-out: MIC A Flavus 01): 0.015 µg/mL (≈ 0.0403 µM) | MIC [2]: 0.25 µg/mL (≈ 0.671 µM) | MIC ([3]; read-out: MIC A Niger 1): 0.031 µg/mL (≈ 0.0832 µM) | MIC ([4]; read-out: MIC A Terreus 4): 0.031 µg/mL (≈ 0.0832 µM) | MIC [5]: 0.25 µg/mL (≈ 0.671 µM) | MIC [6]: 0.015 µg/mL (≈ 0.0403 µM)

CC1(c2ccc(NC(=O)C(=O)c3c(-c4ccccc4)cc4ccccn34)cc2)OCCO1 [Example 264, N-[4-(2-Methyl-[1,3]dioxolan-2-yl)-phenyl]-2-oxo-2-(2-phenyl-indolizin-3-yl)-acetamide]
MIC ([1]; read-out: MIC A Flavus 01): 0.05 µg/mL (≈ 0.117 µM) | MIC [2]: 0.05 µg/mL (≈ 0.117 µM) | MIC ([3]; read-out: MIC A Niger 1): 0.05 µg/mL (≈ 0.117 µM) | MIC ([4]; read-out: MIC A Terreus 4): 0.015 µg/mL (≈ 0.0352 µM) | MIC [5]: 0.05 µg/mL (≈ 0.117 µM) | MIC [6]: 0.008 µg/mL (≈ 0.0188 µM)

2-Oxo-2-(2-pyridin-3-yl-indolizin-3-yl)-N-(3-trifluoromethyl-phenyl)-acetamide [Example 223]
MIC A Flavus 01 [1]: 0.062 mg/L | MIC A Fum. 293 [2]: 0.5 mg/L | MIC A Niger 1 [3]: 0.5 mg/L | MIC A Terreus 4 [4]: 0.12 mg/L | MIC A Fum. 210 [5]: 0.25 mg/L | MIC A Terreus 49 [6]: 0.031 mg/L

COc1ccc(NC(=O)C(=O)c2c(-c3ccccc3)cc3ccccn23)cc1C(C)=O [Example 282, N-(3-Acetyl-4-methoxy-phenyl)-2-oxo-2-(2-phenyl-indolizin-3-yl)-acetamide]
MIC ([1]; read-out: MIC A Flavus 01): 0.008 µg/mL (≈ 0.0194 µM) | MIC [2]: 0.1 µg/mL (≈ 0.242 µM) | MIC ([3]; read-out: MIC A Niger 1): 0.1 µg/mL (≈ 0.242 µM) | MIC ([4]; read-out: MIC A Terreus 4): 0.015 µg/mL (≈ 0.0364 µM) | MIC [5]: 0.1 µg/mL (≈ 0.242 µM) | MIC [6]: 0.004 µg/mL (≈ 0.0097 µM)

CCOC(=O)C(C)(Cc1ccccc1)NC(=O)C(=O)c1c(-c2ccccc2)cc2ccccn12 (stereo not drawn) [Example 249, 2-Methyl-2-[2-oxo-2-(2-phenyl-indolizin-3-yl)-acetylamino]-3-phenyl-propionic acid ethyl ester]
MIC ([1]; read-out: MIC A Flavus 01): > 50 µg/mL | MIC [2]: 0.8 µg/mL (≈ 1.76 µM) | MIC ([3]; read-out: MIC A Niger 1): 6.25 µg/mL (≈ 13.8 µM) | MIC ([4]; read-out: MIC A Terreus 4): 1.6 µg/mL (≈ 3.52 µM) | MIC [5]: 1.6 µg/mL (≈ 3.52 µM) | MIC [6]: 1.6 µg/mL (≈ 3.52 µM)

O=C(Nc1ccc(Cl)cc1Cl)C(=O)c1c(-c2ccccc2)cc2ccccn12 [Example 305, N-(2,4-Dichloro-phenyl)-2-oxo-2-(2-phenyl-indolizin-3-yl)-acetamide]
MIC ([1]; read-out: MIC A Flavus): 0.062 µg/mL (≈ 0.151 µM) | MIC [2]: 0.5 µg/mL (≈ 1.22 µM) | MIC ([3]; read-out: MIC A Niger): 0.015 µg/mL (≈ 0.0367 µM) | MIC ([4]; read-out: MIC A Terreus): 0.031 µg/mL (≈ 0.0757 µM) | MIC [5]: 0.5 µg/mL (≈ 1.22 µM) | MIC [6]: 0.015 µg/mL (≈ 0.0367 µM)

CON=C(C)c1ccc(NC(=O)C(=O)c2c(-c3ccccc3)cc3ccccn23)cc1 (mixture of isomers) [Example 243, N-(4-{1-[(E/Z)-Methoxyimino]-ethyl}-phenyl)-2-oxo-2-(2-phenyl-indolizin-3-yl)-acetamide]
MIC A Flavus 01 [1]: 0.015 mg/L | MIC A Fum. 293 [2]: 0.062 mg/L | MIC A Niger 1 [3]: 0.015 mg/L | MIC A Terreus 4 [4]: 0.008 mg/L | MIC A Fum. 210 [5]: 0.12 mg/L | MIC A Terreus 49 [6]: 0.004 mg/L

COc1ccccc1-c1cc2ccccn2c1C(=O)C(=O)Nc1ccc(F)cc1F [Example 269, N-(2,4-Difluoro-phenyl)-2-[2-(2-methoxy-phenyl)-indolizin-3-yl]-2-oxo-acetamide]
MIC ([1]; read-out: MIC A Flavus 01): 0.2 µg/mL (≈ 0.492 µM) | MIC [2]: 1.6 µg/mL (≈ 3.94 µM) | MIC ([3]; read-out: MIC A Niger 1): 0.1 µg/mL (≈ 0.246 µM) | MIC ([4]; read-out: MIC A Terreus 4): 0.2 µg/mL (≈ 0.492 µM) | MIC [5]: 1.6 µg/mL (≈ 3.94 µM) | MIC [6]: 0.2 µg/mL (≈ 0.492 µM)

Cn1ccc2cc(NC(=O)C(=O)c3c(-c4ccccc4)cc4ccccn34)ccc21 [Example 256, N-(1-Methyl-1H-indol-5-yl)-2-oxo-2-(2-phenyl-indolizin-3-yl)-acetamide]
MIC ([1]; read-out: MIC A Flavus 01): 0.04 µg/mL (≈ 0.102 µM) | MIC [2]: 0.015 µg/mL (≈ 0.0381 µM) | MIC ([3]; read-out: MIC A Niger 1): 0.03 µg/mL (≈ 0.0762 µM) | MIC ([4]; read-out: MIC A Terreus 4): 0.001 µg/mL (≈ 0.00254 µM) | MIC [5]: 0.015 µg/mL (≈ 0.0381 µM) | MIC [6]: 0.001 µg/mL (≈ 0.00254 µM)

Cc1ncccc1-c1cc2ccccn2c1C(=O)C(=O)Nc1ccc(OCC(F)(F)C(F)F)cc1 [Example 283, 2-[2-(2-Methyl-pyridin-3-yl)-indolizin-3-yl]-2-oxo-N-[4-(2,2,3,3-tetrafluoro-propoxy)-phenyl]-acetamide]
MIC ([1]; read-out: MIC A Flavus 01): 0.015 µg/mL (≈ 0.0309 µM) | MIC [2]: 0.2 µg/mL (≈ 0.412 µM) | MIC ([3]; read-out: MIC A Niger 1): 0.05 µg/mL (≈ 0.103 µM) | MIC ([4]; read-out: MIC A Terreus 4): 0.1 µg/mL (≈ 0.206 µM) | MIC [5]: 0.2 µg/mL (≈ 0.412 µM) | MIC [6]: 0.05 µg/mL (≈ 0.103 µM)

COc1ccc(NC(=O)C(=O)c2c(-c3cccs3)cc3ccccn23)cc1 [Example 148, N-(4-Methoxy-phenyl)-2-oxo-2-(2-thiophen-2-yl-indolizin-3-yl)-acetamide]
MIC ([1]; read-out: MIC A Flavus 01): 0.008 µg/mL (≈ 0.0213 µM) | MIC [2]: 0.12 µg/mL (≈ 0.319 µM) | MIC ([3]; read-out: MIC A Niger 1): 0.062 µg/mL (≈ 0.165 µM) | MIC ([4]; read-out: MIC A Terreus 4): 0.008 µg/mL (≈ 0.0213 µM) | MIC [5]: 0.12 µg/mL (≈ 0.319 µM) | MIC [6]: 0.008 µg/mL (≈ 0.0213 µM)

CN(C)c1ccc(NC(=O)C(=O)c2c(-c3cccnc3)cc3ccccn23)cn1 [Example 253, N-(6-Dimethylamino-pyridin-3-yl)-2-oxo-2-(2-pyridin-3-yl-indolizin-3-yl)-acetamide]
MIC ([1]; read-out: MIC A Flavus 01): 25 µg/mL (≈ 64.9 µM) | MIC [2]: > 50 µg/mL | MIC ([3]; read-out: MIC A Niger 1): > 50 µg/mL | MIC ([4]; read-out: MIC A Terreus 4): 12.5 µg/mL (≈ 32.4 µM) | MIC [5]: > 50 µg/mL | MIC [6]: 12.5 µg/mL (≈ 32.4 µM)

CN(Cc1ccccc1)C(=O)c1cccc(NC(=O)C(=O)c2c(-c3ccccc3)cc3ccccn23)c1 [Example 263, N-Benzyl-N-methyl-3-[2-oxo-2-(2-phenyl-indolizin-3-yl)-acetylamino]-benzamide]
MIC ([1]; read-out: MIC A Flavus 01): 0.05 µg/mL (≈ 0.103 µM) | MIC [2]: 0.4 µg/mL (≈ 0.82 µM) | MIC ([3]; read-out: MIC A Niger 1): 0.8 µg/mL (≈ 1.64 µM) | MIC ([4]; read-out: MIC A Terreus 4): 0.2 µg/mL (≈ 0.41 µM) | MIC [5]: 0.4 µg/mL (≈ 0.82 µM) | MIC [6]: 0.1 µg/mL (≈ 0.205 µM)

C=CCOc1cc(F)ccc1NC(=O)C(=O)c1c(-c2ccccc2)cc2ccccn12 [Example 247, N-(2-Allyloxy-4-fluoro-phenyl)-2-oxo-2-(2-phenyl-indolizin-3-yl)-acetamide]
MIC ([1]; read-out: MIC A Flavus 01): 1.6 µg/mL (≈ 3.86 µM) | MIC [2]: 3.1 µg/mL (≈ 7.48 µM) | MIC ([3]; read-out: MIC A Niger 1): 3.1 µg/mL (≈ 7.48 µM) | MIC ([4]; read-out: MIC A Terreus 4): 0.4 µg/mL (≈ 0.965 µM) | MIC [5]: 3.1 µg/mL (≈ 7.48 µM) | MIC [6]: 0.2 µg/mL (≈ 0.483 µM)
